The text below walks through data of ChEMBL document CHEMBL2074390, “Vectorial transport of bile salts across MDCK cells expressing both rat Na+-taurocholate cotransporting polypeptide and rat bile salt export pump” (Am J Physiol Gastrointest Liver Physiol, 2004).

This experiment has as its system MDCK.

Description: TP_TRANSPORTER: transepithelial transport (basal to apical) in Ntcp/Bsep double transfected MDCK cell

Broadly, the Km is the substrate concentration at which the rate is half of its maximum. Regarding `C[C@H](CCC(=O)NCCS(=O)(=O)O)[C@H]1CC[C@H]2[C@@H]3[C@H](O)C[C@@H]4C[C@H](O)CC[C@]4(C)[C@H]3C[C@H](O)[C@]12C`, the Km was 22.2 µM.
